Test results reported in ChEMBL document CHEMBL4017474, “A calcineurin antifungal strategy with analogs of FK506” (Bioorg Med Chem Lett, 2017).
Active and inactive are the calls of the source. The calls are words filed in the database; no cut-off is given here.

Legend:
Aspergillus fumigatus [1] = test: Antifungal activity against Aspergillus fumigatus assessed as spore germination at 12.5 ug/ml measured after 48 hrs in presence of FK506 by broth dilution method relative to control; type: functional
[2] = biological target: T1, Peptidyl-prolyl cis-trans isomerase FKBP1A (Homo sapiens, UniProt P62942); test: Antagonist activity at human FKBP12 measured after 30 mins by fluorescein labelled SLF tracer based fluorescence polarization assay
T1 sequence (P62942 whole entry): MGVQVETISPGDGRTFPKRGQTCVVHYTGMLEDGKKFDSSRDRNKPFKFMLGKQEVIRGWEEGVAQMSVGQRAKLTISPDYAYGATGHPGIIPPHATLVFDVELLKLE

PBMC [3] = test: Reversal of FK506-induced inhibition of cell proliferation in concanavalin A stimulated human PBMC at 1 uM measured after 72 hrs by CellTiter-Glo assay relative to control; type: functional; set-up: scale not given: the % may be the effect or the level left
PBMC [4] = test: Antiproliferative activity against concanavalin A stimulated human PBMC at 1 to 2 ug/ml measured after 72 hrs by CellTiter-Glo assay; type: cell-based
HepG2 = test: Cytotoxicity against human HepG2 cells; type: cell-based
Vero 76 = test: Cytotoxicity against African green monkey Vero 76 cells; type: cell-based; settings: Chlorocebus sabaeus
[5] = biological target: T1, Peptidyl-prolyl cis-trans isomerase FKBP1A; test: (§1) Antagonist activity at recombinant human N-terminal His6-tagged FKBP12 expressed in Escherichia coli assessed as inhibition of FKBP12 binding to calcineurin at 5 uL using […] pretreated for 1 hr followed by substrate addition measured after 1 hr by biomol green dye based spectrophotometric method
[6] = biological target: T1, Peptidyl-prolyl cis-trans isomerase FKBP1A; test: as §1, with “of FK506 mediated” for “of”, “calcineurin” for “calcineurin at 5 uL”
Jurkat = test: Immunosuppressive activity in PMA/ionomycin stimulated human Jurkat T cells assessed as suppression of IL2 production pretreated for 15 to 30 mins followed by PMA/ionomycin addition measured after 18 to 20 hrs by ELISA; type: cell-based
Aspergillus fumigatus [7] = test: Antifungal activity against Aspergillus fumigatus up to 25 ug/ml measured after 48 hrs by broth dilution method; type: functional
[8] = AUClast in mouse at 3 mg/kg, iv; type: ADME, organism-based; set-up: dose 3 mg/kg, time 0 - last, route intravenous; settings: in vivo
[9] = Clearance in mouse at 3 mg/kg, iv; type: ADME, organism-based; settings: in vivo
[10] = AUClast in mouse at 10 mg/kg, po; type: ADME, organism-based; set-up: dose 10 mg/kg, time 0 - last, route oral; settings: in vivo
Aspergillus fumigatus [11] = test: Permeability across Aspergillus fumigatus at 12.5 ug/ml relative to human PBMC; type: ADME
[12] = Tmax in mouse at 10 mg/kg, po; type: ADME, organism-based; settings: in vivo
[13] = Cmax in mouse at 10 mg/kg, po; type: ADME, organism-based; set-up: dose 10 mg/kg, route oral; settings: in vivo
[14] = Terminal half-life in mouse at 3 mg/kg, iv; type: ADME, organism-based; settings: in vivo, read-out: beta t1/2 (converted)
[15] = Volume of distribution at steady state in mouse at 3 mg/kg, iv; type: ADME, organism-based; settings: in vivo, read-out: Vdss
[16] = Antagonist activity at Aspergillus fumigatus FKBP12 measured after 30 mins by fluorescein labelled SLF tracer based fluorescence polarization assay
PBMC [17] = test: Reversal of FK506-induced inhibition of cell proliferation in concanavalin A stimulated human PBMC at 0.1 uM measured after 72 hrs by CellTiter-Glo assay; type: functional, cell-based
Aspergillus fumigatus [18] = test: Antifungal activity against Aspergillus fumigatus assessed as spore germination at 6.25 to 25 ug/ml measured after 48 hrs in presence of FK506 by broth dilution method; type: functional

SMILES	IC50 [2] [nM]	inhibition [5]	IC50 [6] [nM]	IC50 (Jurkat) [nM]	Activity (Aspergillus fumigatus [1])	Activity (PBMC [3]) [%]	Activity (PBMC [4])	IC50 (HepG2) [nM]	IC50 (Vero 76) [nM]	Activity (Aspergillus fumigatus [7])	other results
CO[C@H]1C[C@@H](C)C/C(C)=C/[C@@H](CC(=O)N2CCCC2)C(=O)C[C@H](O)[C@@H](C)[C@@H](/C(C)=C/[C@@H]2CC[C@@H](OC(=O)N3CC(O)C3)[C@H](OC)C2)OC(=O)[C@@H]2CCCCN2C(=O)C(=O)[C@]2(O)O[C@H]1[C@@H](OC)C[C@H]2C	22.6	inactive		> 10000	22%	63	Non-Toxic	> 100000	> 100000	inactive	AUC(0-t) [8]: 2780 ng·h/mL; clearance [9]: 16.1 mL/min/kg; AUC(0-t) [10]: 1860 ng·h/mL; permeability (Aspergillus fumigatus [11]): 75%; Tmax [12]: 30 min; Cmax [13]: 814 ng/mL; half-life [14]: 81.6 min; Vd [15]: 1.35 L/kg
CC[C@@H]1/C=C(\C)C(O)[C@H](C)C[C@H](OC)[C@H]2O[C@@](O)(C(=O)C(=O)N3CCCC[C@H]3C(=O)O[C@H](/C(C)=C/[C@@H]3CC[C@@H](O)[C@H](OC)C3)[C@H](C)[C@@H](O)CC1=O)[C@H](C)C[C@@H]2OC (stereo partly specified)	6.8	inactive	1310	> 10000	83 - 86.8%	78.7	Non-Toxic	> 100000	> 100000	inactive	AUC(0-t) [8]: 787 ng·h/mL; clearance [9]: 60.8 mL/min/kg; AUC(0-t) [10]: 208 ng·h/mL; Activity (PBMC [17]): inactive; Tmax [12]: 15 min; Activity (Aspergillus fumigatus [18]): inactive; Cmax [13]: 184 ng/mL; half-life [14]: 66.6 min; Vd [15]: 2.58 L/kg; IC50 [16]: 18.5 nM
CO[C@H]1C[C@@H](C)C/C(C)=C/[C@@H](CCCC(=O)N(CCO)CCO)C(=O)C[C@H](O)[C@@H](C)[C@@H](/C(C)=C/[C@@H]2CC[C@@H](O)[C@H](OC)C2)OC(=O)[C@@H]2CCCCN2C(=O)C(=O)[C@]2(O)O[C@H]1[C@@H](OC)C[C@H]2C	13.4	inactive	989	> 10000	35.7%	36.2	Non-Toxic	> 100000	> 100000	inactive	IC50 [16]: 22.5 nM
CO[C@H]1C[C@@H](C)C/C(C)=C/[C@@H](/C=C/CCCC(=O)N2CCNCC2)C(=O)C[C@H](O)[C@@H](C)[C@@H](/C(C)=C/[C@@H]2CC[C@@H](O)[C@H](OC)C2)OC(=O)[C@@H]2CCCCN2C(=O)C(=O)[C@]2(O)O[C@H]1[C@@H](OC)C[C@H]2C	12.6	inactive	1810	> 10000	36.5%	27.5	Non-Toxic	> 100000	> 100000	inactive	
CO[C@H]1C[C@@H](C)C/C(C)=C/[C@@H](CCN(C)C)C(=O)C[C@H](O)[C@@H](C)[C@@H](/C(C)=C/[C@@H]2CC[C@@H](O)[C@H](OC)C2)OC(=O)[C@@H]2CCCCN2C(=O)C(=O)[C@]2(O)O[C@H]1[C@@H](OC)C[C@H]2C	19.2	inactive		> 10000	54.3%	105.6	Non-Toxic	> 100000	> 100000	inactive	
CO[C@H]1C[C@@H](C)C/C(C)=C/[C@@H](CCCC(=O)NCCc2ccccn2)C(=O)C[C@H](O)[C@@H](C)[C@@H](/C(C)=C/[C@@H]2CC[C@@H](O)[C@H](OC)C2)OC(=O)[C@@H]2CCCCN2C(=O)C(=O)[C@]2(O)O[C@H]1[C@@H](OC)C[C@H]2C	14.3	inactive	850	> 10000	31%	36.6	Non-Toxic	> 100000	> 100000	inactive	

Further lines, with some results ahead:

IC50 [2] [nM]	inhibition [5]	IC50 [6] [nM]	IC50 (Jurkat) [nM]	SMILES	Activity (Aspergillus fumigatus [1])	Activity (PBMC [3]) [%]	Activity (PBMC [4])	IC50 (HepG2) [nM]	IC50 (Vero 76) [nM]	Activity (Aspergillus fumigatus [7])	other results
11	inactive	1740	> 10000	CC[C@@H]1/C=C(\C)C[C@H](C)C[C@H](OC)[C@H]2O[C@@](O)(C(=O)C(=O)N3CCCC[C@H]3C(=O)O[C@H](/C(C)=C/[C@@H]3CC[C@@H](OC(=O)N4CCN(C)CC4)[C@H](OC)C3)[C@H](C)[C@@H](O)CC1=O)[C@H](C)C[C@@H]2OC	68%	79.8	Non-Toxic	> 100000	> 100000	inactive	
22.1	inactive		> 10000	CO[C@H]1C[C@@H](C)C/C(C)=C/[C@@H](CC(=O)N2CCCC2)C(=O)C[C@H](O)[C@@H](C)[C@@H](/C(C)=C/[C@@H]2CC[C@@H](O)[C@H](OC)C2)OC(=O)[C@@H]2CCCCN2C(=O)C(=O)[C@]2(O)O[C@H]1[C@@H](OC)C[C@H]2C	90.5%		Non-Toxic	> 100000	> 100000	inactive	AUC(0-t) [8]: 2140 ng·h/mL; clearance [9]: 22.8 mL/min/kg; half-life [14]: 42.8 min; Vd [15]: 1.01 L/kg
11.5	inactive	824	> 10000	CO[C@H]1C[C@@H](C)C/C(C)=C/[C@@H](CCCC(=O)NCCN2CCOCC2)C(=O)C[C@H](O)[C@@H](C)[C@@H](/C(C)=C/[C@@H]2CC[C@@H](O)[C@H](OC)C2)OC(=O)[C@@H]2CCCCN2C(=O)C(=O)[C@]2(O)O[C@H]1[C@@H](OC)C[C@H]2C	39.7%	45.9	Non-Toxic	> 100000	> 100000	inactive	
12.5	inactive	1110	> 10000	CO[C@H]1C[C@@H](C)C/C(C)=C/[C@@H](CCCC(=O)N2CC(O)C2)C(=O)C[C@H](O)[C@@H](C)[C@@H](/C(C)=C/[C@@H]2CC[C@@H](O)[C@H](OC)C2)OC(=O)[C@@H]2CCCCN2C(=O)C(=O)[C@]2(O)O[C@H]1[C@@H](OC)C[C@H]2C	24%	49.9	Non-Toxic	> 100000	> 100000	inactive	
9.52	inactive	1080	> 10000	CO[C@H]1C[C@@H](C)C/C(C)=C/[C@@H](CCCC(=O)N2CC(N3CCOCC3)C2)C(=O)C[C@H](O)[C@@H](C)[C@@H](/C(C)=C/[C@@H]2CC[C@@H](O)[C@H](OC)C2)OC(=O)[C@@H]2CCCCN2C(=O)C(=O)[C@]2(O)O[C@H]1[C@@H](OC)C[C@H]2C	49.6%	49.3	Non-Toxic	> 100000	> 100000	inactive	IC50 [16]: 12.8 nM
23.6	inactive		> 10000	CO[C@H]1C[C@@H](C)C/C(C)=C/[C@@H](CCCC(=O)N2CCC(CO)CC2)C(=O)C[C@H](O)[C@@H](C)[C@@H](/C(C)=C/[C@@H]2CC[C@@H](OCCO)[C@H](OC)C2)OC(=O)[C@@H]2CCCCN2C(=O)C(=O)[C@]2(O)O[C@H]1[C@@H](OC)C[C@H]2C	24%	81.7	Non-Toxic	> 100000	> 100000	inactive	permeability (Aspergillus fumigatus [11]): 75%
19.1	inactive		> 10000	CO[C@H]1C[C@@H](C)C/C(C)=C/[C@@H](CCCC(=O)N2CCN(C)CC2)C(=O)C[C@H](O)[C@@H](C)[C@@H](/C(C)=C/[C@@H]2CC[C@@H](OCCO)[C@H](OC)C2)OC(=O)[C@@H]2CCCCN2C(=O)C(=O)[C@]2(O)O[C@H]1[C@@H](OC)C[C@H]2C	24 - 42%	67.8	Non-Toxic	> 100000	> 100000	inactive	Activity (PBMC [17]): inactive; Activity (Aspergillus fumigatus [18]): Active
11.2	inactive	1290	> 10000	CO[C@H]1C[C@@H](C)C/C(C)=C/[C@@H](CCCC(=O)N2CCN(Cc3ccccn3)CC2)C(=O)C[C@H](O)[C@@H](C)[C@@H](/C(C)=C/[C@@H]2CC[C@@H](O)[C@H](OC)C2)OC(=O)[C@@H]2CCCCN2C(=O)C(=O)[C@]2(O)O[C@H]1[C@@H](OC)C[C@H]2C	47.4%	88.3	Non-Toxic	> 100000	> 100000	inactive	
